Assay results from BigSolDB 2.1.

Nc1nc(Cl)c2[nH]cnc2n1
Conditions	solubility (mole fraction)
in 1,4-dioxane, 288.15 K	7.48e-05
in 1,4-dioxane, 293.15 K	9.16e-05
in 1,4-dioxane, 298.15 K	0.000112
in 1,4-dioxane, 303.15 K	0.000135
in 1,4-dioxane, 308.15 K	0.000162
in 1,4-dioxane, 313.15 K	0.000195
in 1,4-dioxane, 318.15 K	0.000236
in 1,4-dioxane, 323.15 K	0.000277
in 1,4-dioxane, 328.15 K	0.000325
in 1,4-dioxane, 333.15 K	0.000396
in 2-butanone, 278.15 K	0.000178
in 2-butanone, 283.15 K	0.000214
in 2-butanone, 288.15 K	0.000256
in 2-butanone, 293.15 K	0.000303
in 2-butanone, 298.15 K	0.000352
in 2-butanone, 303.15 K	0.000408
in 2-butanone, 308.15 K	0.000476
in 2-butanone, 313.15 K	0.000547
in 2-butanone, 318.15 K	0.000626
in 2-butanone, 323.15 K	0.000723
in 2-butanone, 328.15 K	0.00084
in 2-butanone, 333.15 K	0.001
in DMF, 278.15 K	0.00226
in DMF, 283.15 K	0.00266
in DMF, 288.15 K	0.00313
in DMF, 293.15 K	0.00366
in DMF, 298.15 K	0.00427
in DMF, 303.15 K	0.00497
in DMF, 308.15 K	0.00577
in DMF, 313.15 K	0.00668
in DMF, 318.15 K	0.00771
in DMF, 323.15 K	0.00888
in DMF, 328.15 K	0.01
in DMF, 333.15 K	0.0121
in DMSO, 298.15 K	0.0108
in DMSO, 303.15 K	0.0127
in DMSO, 308.15 K	0.015
in DMSO, 313.15 K	0.0172
in DMSO, 318.15 K	0.0204
in DMSO, 323.15 K	0.024
in DMSO, 328.15 K	0.0284
in DMSO, 333.15 K	0.0331
in ethanol, 278.15 K	4.39e-05
in ethanol, 283.15 K	5.42e-05
in ethanol, 288.15 K	6.87e-05
in ethanol, 293.15 K	8.56e-05
in ethanol, 298.15 K	0.000105
in ethanol, 303.15 K	0.000125
in ethanol, 308.15 K	0.000153
in ethanol, 313.15 K	0.000184
in ethanol, 318.15 K	0.000218
in ethanol, 323.15 K	0.000258
in ethanol, 328.15 K	0.000303
in ethanol, 333.15 K	0.000357
in ethylene glycol, 278.15 K	0.000549
in ethylene glycol, 283.15 K	0.000634
in ethylene glycol, 288.15 K	0.000719
in ethylene glycol, 293.15 K	0.000823
in ethylene glycol, 298.15 K	0.000923
in ethylene glycol, 303.15 K	0.00104
in ethylene glycol, 308.15 K	0.00117
in ethylene glycol, 313.15 K	0.0013
in ethylene glycol, 318.15 K	0.00145
in ethylene glycol, 323.15 K	0.0016
in ethylene glycol, 328.15 K	0.00177
in ethylene glycol, 333.15 K	0.00198
in isobutanol, 278.15 K	8.8e-05
in isobutanol, 283.15 K	0.000106
in isobutanol, 288.15 K	0.000131
in isobutanol, 293.15 K	0.000155
in isobutanol, 298.15 K	0.00018
in isobutanol, 303.15 K	0.000211
in isobutanol, 308.15 K	0.000244
in isobutanol, 313.15 K	0.00028
in isobutanol, 318.15 K	0.000325
in isobutanol, 323.15 K	0.000373
in isobutanol, 328.15 K	0.000433
in isobutanol, 333.15 K	0.000499
in isopropanol, 278.15 K	5.99e-05
in isopropanol, 283.15 K	7.43e-05
in isopropanol, 288.15 K	9.38e-05
in isopropanol, 293.15 K	0.000114
in isopropanol, 298.15 K	0.000137
in isopropanol, 303.15 K	0.000165
in isopropanol, 308.15 K	0.000195
in isopropanol, 313.15 K	0.00023
in isopropanol, 318.15 K	0.000266
in isopropanol, 323.15 K	0.000314
in isopropanol, 328.15 K	0.000363
in isopropanol, 333.15 K	0.000431
in methanol, 278.15 K	3.09e-05
in methanol, 283.15 K	3.96e-05
in methanol, 288.15 K	4.94e-05
in methanol, 293.15 K	6.14e-05
in methanol, 298.15 K	7.53e-05
in methanol, 303.15 K	9.43e-05
in methanol, 308.15 K	0.000112
in methanol, 313.15 K	0.000137
in methanol, 318.15 K	0.000168
in methanol, 323.15 K	0.000198
in methanol, 328.15 K	0.000233
in methanol, 333.15 K	0.000279
in n-butanol, 278.15 K	0.000135
in n-butanol, 283.15 K	0.000159
in n-butanol, 288.15 K	0.000185
in n-butanol, 293.15 K	0.00021
in n-butanol, 298.15 K	0.000242
in n-butanol, 303.15 K	0.000276
in n-butanol, 308.15 K	0.000316
in n-butanol, 313.15 K	0.000358
in n-butanol, 318.15 K	0.000409
in n-butanol, 323.15 K	0.000461
in n-butanol, 328.15 K	0.000515
in n-butanol, 333.15 K	0.000586
in n-propanol, 278.15 K	0.000103
in n-propanol, 283.15 K	0.000122
in n-propanol, 288.15 K	0.000149
in n-propanol, 293.15 K	0.000174
in n-propanol, 298.15 K	0.000202
in n-propanol, 303.15 K	0.000234
in n-propanol, 308.15 K	0.000274
in n-propanol, 313.15 K	0.000314
in n-propanol, 318.15 K	0.000362
in n-propanol, 323.15 K	0.00042
in n-propanol, 328.15 K	0.000472
in n-propanol, 333.15 K	0.000539
in water, 278.15 K	3.28e-06
in water, 283.15 K	4.66e-06
in water, 288.15 K	6.53e-06
in water, 293.15 K	9.04e-06
in water, 298.15 K	1.24e-05
in water, 303.15 K	1.68e-05
in water, 308.15 K	2.26e-05
in water, 313.15 K	3e-05
in water, 318.15 K	3.96e-05
in water, 323.15 K	5.17e-05
in water, 328.15 K	6.7e-05
in water, 333.15 K	8.62e-05
